Laboratory results reported in patent US20260115331A1, “PET IMAGING OF BACTERIAL INFECTION WITH A PET PROBE” (Mayo Foundation for Medical Education and Research, priority 2022, published 2026).

Assay: PET image analysis (SUV) of inflamed tibia in foreign body inflammation rat model
Assay type: in vivo, rats
Settings: each time point up to 120 minutes (FIG. 27)
Procedure: The PET probe [^68Ga]Ga-H3P2O8 was evaluated in methicillin-resistant S. aureus (MRSA) foreign-body osteomyelitis in the left tibia with a stainless steel Kirschner wire (K-wire) implant in male Wister rats, following a previously established protocol [Ref. 17]. Briefly, a 1 cm incision was made on the medial tibia and the bone exposed. A 1.5 mm hole was drilled, 0.01 mL of arachidonic acid (a sclerosing agent) and 0.05 mL of a suspension containing MRSA DRL-6169 at 10^8 cfu/mL was injected into the bone. A 5 mm threaded stainless-steel K-wire was inserted. The hole was closed with dental gypsum and the site closed. After implantation, the muscle and fascia were closed with 3-0 vicryl using simple interrupted sutures. The skin was closed with sterile wound clips and VetBond. The wound was sprayed with Aluspray and Chew Guard. After 7 days of implantation of wire, the animal was put on iron-deficient diet for 7 days and on the day of imaging, the animals were fasted for 4 hours prior to the injection of the PET probe. [^68Ga]Ga-H3P2O8 (32.81±6.28 MBq, n=18) were injected into the rat model via tail vein injection. The rat model was either a normal rat model or an osteomyelitis foreign body rat model or an inflamed foreign body rat model. PET/CT images were acquired at 15 minutes, 30 minutes, 60 minutes, and 120 minutes post-injection using Siemens Inveon MicroPET/CT Scanner (see FIGS. 17, 18, and Table 2).
To assess the preferential uptake of novel [^68Ga]Ga-H3P2O8 PET probe in infection as compared to inflammation, the same surgery and imaging was performed but omitted the MRSA. […] The probe [^68Ga]Ga-H3P2O8 was also successfully used to detect thigh infection caused by E coli in a mouse model.
To further investigate the selectivity of [^68Ga]Ga-H3P2O8 for imaging infection over inflammation, this novel probe was compared to other PET imaging probes, [^68Ga]Ga-Citrate and [^18F]FDG in an inflammation model. In a side-by-side study, all three probes were used to image inflammation (i.e., an inflamed tibia) in an osteomyelitis foreign body rat model.

SMILES | difference in mean SUV between the probes in inflamed tibia
O=C([O-])CC(O)(CC(=O)[O-])C(=O)[O-].[Ga+3] [[^68Ga]Ga-Citrate] | no significant difference
OC[C@H]1OC(O)[C@H]([18F])[C@@H](O)[C@@H]1O (some centres unmarked) [[^18F]FDG, [^18F]Fluorodeoxyglucose] | no significant difference
